From patent publication US8753648B2 (priority 2002, dated 2014)

Tests used:
cowpox virus [1] = conditions: mouse, in vivo; cited from earlier work
cowpox virus [2] = conditions: mouse, in vivo; cited from earlier work; remark: listed apart in the source
CV-1 cells = conditions: African green monkey
RK44.20 cells = conditions: rabbit

Row | SMILES | effect on mortality (cowpox virus [1]) | effect on death (cowpox virus [2]) | AZT concentration with toxic effect on cells (CV-1 cells) [mg/mL] | AZT concentration with toxic effect on cells (RK44.20 cells) [mg/mL]
1 | Nc1ccn(C[C@@H](CO)OCP(=O)(O)O)c(=O)n1 [Cidofovir] | reduce mortality | only delayed but did not prevent death |  | 
2 | Cc1cn([C@H]2C[C@H](N=[N+]=[N-])[C@@H](CO)O2)c(=O)[nH]c1=O [AZT, 3′-azido-2′,3′-dideoxythymidine] |  |  | > 1.5 | > 1.5
